The subject of assay [1] is human peripheral blood mononuclear cells. The assay can be described thus: Human PBMC injected intraperitoneally into SCID mice. Format: in vivo, human cells in SCID mice. On the procedure: Human peripheral blood mononuclear cells (50.106/mouse), either with concomitant BiP (100 μg/mouse) or with PBS/vehicle, were injected into the peritoneal cavity of SCID mice. After 11d the cells were flushed from the peritoneal cavity and investigated by flow cytometry. (A) Intracellular expression of IL-4 was measured 3 h post ex vivo stimulation with PMA (10 ng/ml) and ionomycin (1 μg/ml) in the presence of monensin. (B) surface expression of HLA-DR CD4+ cells. The mean and standard deviation of 3 experiments are shown
The biomarkers were investigated in two situations: 1) when 50.10^6 human peripheral blood mononuclear cells were injected intraperitoneally, with or without BiP (100 μg), into a mouse and the cells were harvested from the peritoneum 11 days later; or (2) BiP (200 μg) was injected intravenously into a mouse and the spleens and lymph nodes removed 11 days later.
In each of three experiments, two/three mice were injected either with BiP treated human peripheral blood mononuclear cells (hPBMC) (50.10^6/mouse) and or untreated hPBMC. The mice were sacrificed 11 days later, the peritoneal cavity washed out and the cells collected for immunofluorescence and flow cytometric analysis. The cells were particularly stained for TH2 markers and intracellular anti-inflammatory cytokines.
SCID mice were given an intraperitoneal injection of human PBMC (50.106/mouse) in the presence or absence of BiP (100 μg/mouse) and sacrificed 11d later when the peritoneum was washed out with PBS and the remaining cells collected for analysis. Cells were examined for the intracellular presence of IL-4 or IFNγ and for cell surface molecules such as HLA-DR and CD86.

Assay [2] relates to T cells. The assay can be described thus: Direct effect of BiP on T cells / PBMC: marker expression. It counts as cell-based, human. On the procedure:
CCR4 and CCR5 expression by T cells.
Immunofluorescent staining was performed as follows when required. Cells were suspended in immunofluorescent buffer (IF) (PBS/0.1% BSA/0.05% azide) washed and incubated for 10 mins on ice with normal human serum. After washing twice in IF buffer, saturating concentrations of fluorescein isothiocyanate (FITC)-, phycoerythrin (PE) or peridium chlorophyll (Per-CP)-conjugated monoclonal antibodies (mAb) recognizing human CD14, CD86, CD80, HLA-DR, CD11c, CD1a, CD83, CD40 and CD85j, (all from Becton Dickinson/PharMingen, Oxford, UK) were added singly or in combination, as stated in the text, to cells for 20 mins on ice. Cells were then washed twice in IF buffer and analysed. Isotype controls, IgG1 and IgG2a (Becton Dickinson, Oxford, UK) were used in parallel.
Another group of regulatory T cells recently described are characterised by the expression of CD8CD122.

Assay [3] has as its system collagen-induced arthritis (CIA). Particulars: administration of BiP to mice, literature reference, cited from earlier work.
The test system of assay [4] is T cells. In words: Regulatory markers on T cells co-cultured with BiP-treated dendritic cells. It counts as cell-based, human. As for the experimental part:
FIG. 11: Co-culture of T cells with BiP-treated dendritic cells (DC) upregulates regulatory markers. […] Mean ±standard deviation of three experiments is shown.
Intracellular staining was carried out with fixed cells incubated with 1% paraformaldehyde in IF buffer for 5 minutes at room temperature. The cells were washed twice with IF buffer containing 0.3% saponin for permeabilization. 0.3% saponin was then present in all IF buffer used thereafter. CTLA-4/CD152 (BD), FoxP3 (eBioscience) and indolamine 2,3-dioxygenase (Santa Cruz) and cytokines required intracellular staining. Antibodies were added at the pre-determined optimal concentration for 20 mins and then the cells were washed twice with IF buffer and analysed. Isotype controls, IgG1 and IgG2a (Becton Dickinson, Oxford, UK) were used in parallel. Cells were analysed on a FACScan cytometer using Cellquest software (Becton Dickinson, Oxford, UK).
T cells were purified from peripheral blood mononuclear cells and set up in culture with either allogeneic or autologous dendritic cells, which had been washed and irradiated, at a ratio of 10 T cells:1 DC. The cells were co-cultured in a 24 well plate in 1 ml/well, in RPMI 1640 supplemented with 10% foetal calf serum, for 4 days then the T cells were removed and washed before being investigated for the presence of T regulatory cells (see below)
Immunofluorescent staining was performed, as described previously (39), on DC harvested at day 7, T cells after 4 days co-culture with DC. Saturating concentrations of fluorescein isothiocyanate (FITC)-, phycoerythrin (PE) or peridium chlorophyll (Per-CP)-conjugated mAb were added recognizing CD14, CD86, CD80, HLA-DR, CD11c, CD1a, CD83, CD85j, IL-10 receptor; purity of the negatively selected MO and T cells was checked using CD3, CD4, CD14, CD20 and CD57 (all from Becton Dickinson/PharMingen (BD), Oxford, UK). Intracellular staining was carried out following fixation of cells with 1% paraformaldehyde for 5 minutes. Cells were then washed with immunofluorescence buffer (PBS/0.1% BSA/0.05% azide) containing 0.3% saponin. 0.3% saponin was then present in all solutions thereafter. CD152/CTLA-4 (BD, Oxford UK) and IDO (Santa Cruz, Autogen Bioclear, UK) were intracellular stains. Isotype controls, IgG1 and IgG2a (BD, Oxford, UK) were used in parallel. Cells were analysed on a FACScan/FACScalibur cytometers using Cellquest software (BD, Oxford, UK).

Where [5] appears, read: Example 4, hPBMC recovered from peritoneum after 11 days.

Read-outs that look alike come from different tables or passages of the source.

In the case of “BiP: 78 kD endoplasmic reticulum chaperone protein as disclosed in WO 00/21995; recombinant human protein”, in assay [1] (setting [5]), the “cells with intracellular IFNγ” value was determined as 23.5±4%, the “cells with intracellular IL-4” value came to 16.2±0.5% and the “cells with intracellular IL-5” value turned out to be 29±7%. For the same substance, the “intracellular IL-4 in CD4+ cells” value in assay [1] (Example 10, BiP 100 μg/mouse, 11 days, ex vivo PMA and ionomycin 3 h, n=5) stood at 38.2±20%. Also, in assay [1] (Example 10, BiP 100 μg/mouse, 11 days, n=5), the “surface HLA-DR on CD4 T cells” value is 50±6.2%. In addition, the “CCR5 expression by T cells” value in assay [2] (PBMC incubated with BiP for four days (FIG. 4)) is listed as “slightly downregulated”. In assay [2] (PBMC incubated with BiP for four days, three experiments (FIG. 4)), the “CCR4 expression by T cells” value was “significantly raised”. In addition, the CD8CD122 expression in assay [2] (T cells after 7 days incubation with BiP, n=3) is reported as 75.6%±23.5%. For the same substance, the “effect on collagen-induced arthritis” value in assay [3] is “prevented or treated ongoing collagen-induced arthritis”. In addition, in assay [3] (listed as rhuBiP), the “effect on collagen-induced arthritis” value is reported as “prevented the induction of experimental arthritis”. Moreover, the “intracellular CTLA-4 in T cells in contact with mDC(BiP)” value in assay [4] (FIG. 11B) is reported as “significant upregulation of intracellular CTLA-4”. Further, the “T cell surface expression for CD4CD25hiCD27hi” value in assay [4] (after 4d contact with mDC(BiP), n=5) worked out at 2.5±0.2%. Also, the “intracellular CTLA-4/CD152 in T cells” value in assay [4] (after contact with BiP treated DC, n=4) is recorded as 31±12. In addition, the “cell surface CCR4 on T cells” value in assay [4] (after contact with mDC(BiP), n=4) is listed as 17.3±2.0%.

The values above are taken from patent publication US20080155704A1, “Methods and Compositions for Determining in vivo Activity of BiP” (King's College London, priority 2006, published 2008).
